Test results from PubChem BioAssay (NCI).
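All cell lines were grown in 96-well plates and treated with compound for 48 hours. The concentration for 50% growth inhibition is given as GI50. At the TGI there is no net growth.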

Legend:
Test in all cases: DTP human tumour cell line panel, 48 h
786-0 renal = system: 786-0 renal
A498 renal = system: A498 renal
A549 NSCLC = system: A549 NSCLC
ACHN renal = system: ACHN renal
BT-549 breast = system: BT-549 breast
CAKI-1 renal = system: CAKI-1 renal
CCRF-CEM leukemia = system: CCRF-CEM leukemia
COLO 205 colon = system: COLO 205 colon
DU-145 prostate = system: DU-145 prostate
EKVX NSCLC = system: EKVX NSCLC
HCC-2998 colon = system: HCC-2998 colon
HCT-116 colon = system: HCT-116 colon
HCT-15 colon = system: HCT-15 colon
HL-60(TB) leukemia = system: HL-60(TB) leukemia
HOP-92 NSCLC = system: HOP-92 NSCLC
HS 578T breast = system: HS 578T breast
HT29 colon = system: HT29 colon
IGROV1 ovarian = system: IGROV1 ovarian
K-562 leukemia = system: K-562 leukemia
KM12 colon = system: KM12 colon
LOX IMVI melanoma = system: LOX IMVI melanoma
M14 melanoma = system: M14 melanoma
MALME-3M melanoma = system: MALME-3M melanoma
MCF7 breast = system: MCF7 breast
MDA-MB-231 breast = system: MDA-MB-231 breast
MDA-MB-435 = system: MDA-MB-435
MOLT-4 leukemia = system: MOLT-4 leukemia
NCI-H226 lung = system: NCI-H226 lung
NCI-H23 lung = system: NCI-H23 lung
NCI-H460 lung = system: NCI-H460 lung
NCI-H522 lung = system: NCI-H522 lung
NCI/ADR-RES ovarian = system: NCI/ADR-RES ovarian
OVCAR-3 ovarian = system: OVCAR-3 ovarian
OVCAR-4 ovarian = system: OVCAR-4 ovarian
OVCAR-5 ovarian = system: OVCAR-5 ovarian
OVCAR-8 ovarian = system: OVCAR-8 ovarian
PC-3 prostate = system: PC-3 prostate
RXF 393 renal = system: RXF 393 renal
SF-268 CNS = system: SF-268 CNS
SF-295 CNS = system: SF-295 CNS
SF-539 CNS = system: SF-539 CNS
SK-MEL-2 melanoma = system: SK-MEL-2 melanoma
SK-MEL-28 melanoma = system: SK-MEL-28 melanoma
SK-MEL-5 melanoma = system: SK-MEL-5 melanoma
SK-OV-3 ovarian = system: SK-OV-3 ovarian
SN12C renal = system: SN12C renal
SNB-19 CNS = system: SNB-19 CNS
SW-620 colon = system: SW-620 colon
T-47D breast = system: T-47D breast
TK-10 renal = system: TK-10 renal
U251 CNS = system: U251 CNS
UACC-257 melanoma = system: UACC-257 melanoma
UACC-62 melanoma = system: UACC-62 melanoma
UO-31 renal = system: UO-31 renal
HOP-62 NSCLC = system: HOP-62 NSCLC
RPMI-8226 leukemia = system: RPMI-8226 leukemia
SNB-75 CNS = system: SNB-75 CNS

N#CC(NCCc1ccccc1)c1ccc(C(C#N)NCCc2ccccc2)cc1 (stereo unspecified)
TGI (786-0 renal): > 100 µM | TGI (A498 renal): > 100 µM | TGI (A549 NSCLC): > 100 µM | TGI (ACHN renal): > 100 µM | TGI (BT-549 breast): 56.1 µM | TGI (CAKI-1 renal): > 100 µM | TGI (CCRF-CEM leukemia): 65.7 µM | TGI (COLO 205 colon): > 100 µM | TGI (DU-145 prostate): > 100 µM | TGI (EKVX NSCLC): > 100 µM | TGI (HCC-2998 colon): > 100 µM | TGI (HCT-116 colon): > 100 µM | TGI (HCT-15 colon): > 100 µM | TGI (HL-60(TB) leukemia): 40.8 µM | TGI (HOP-92 NSCLC): > 100 µM | TGI (HS 578T breast): > 100 µM | TGI (HT29 colon): > 100 µM | TGI (IGROV1 ovarian): > 100 µM | TGI (K-562 leukemia): 70.6 µM | TGI (KM12 colon): > 100 µM | TGI (LOX IMVI melanoma): > 100 µM | TGI (M14 melanoma): > 100 µM | TGI (MALME-3M melanoma): > 100 µM | TGI (MCF7 breast): > 100 µM | TGI (MDA-MB-231 breast): > 100 µM | TGI (MDA-MB-435): > 100 µM | TGI (MOLT-4 leukemia): > 100 µM | TGI (NCI-H226 lung): > 100 µM | TGI (NCI-H23 lung): > 100 µM | TGI (NCI-H460 lung): > 100 µM | TGI (NCI-H522 lung): > 100 µM | TGI (NCI/ADR-RES ovarian): 57.5 µM | TGI (OVCAR-3 ovarian): > 100 µM | TGI (OVCAR-4 ovarian): > 100 µM | TGI (OVCAR-5 ovarian): > 100 µM | TGI (OVCAR-8 ovarian): > 100 µM | TGI (PC-3 prostate): > 100 µM | TGI (RXF 393 renal): > 100 µM | TGI (SF-268 CNS): > 100 µM | TGI (SF-295 CNS): > 100 µM | TGI (SF-539 CNS): > 100 µM | TGI (SK-MEL-2 melanoma): > 100 µM | TGI (SK-MEL-28 melanoma): > 100 µM | TGI (SK-MEL-5 melanoma): > 100 µM | TGI (SK-OV-3 ovarian): > 100 µM | TGI (SN12C renal): > 100 µM | TGI (SNB-19 CNS): > 100 µM | TGI (SW-620 colon): > 100 µM | TGI (T-47D breast): > 100 µM | TGI (TK-10 renal): > 100 µM | TGI (U251 CNS): > 100 µM | TGI (UACC-257 melanoma): > 100 µM | TGI (UACC-62 melanoma): > 100 µM | TGI (UO-31 renal): > 100 µM

O=C1NC(=NCc2c(Cl)cccc2Cl)S/C1=C\c1ccc2ncccc2c1
GI50 (786-0 renal): 9.79 µM | TGI (786-0 renal): > 25 µM | GI50 (A498 renal): 4.47 µM | TGI (A498 renal): > 25 µM | GI50 (A549 NSCLC): 10.2 µM | TGI (A549 NSCLC): > 25 µM | GI50 (ACHN renal): 8.11 µM | TGI (ACHN renal): > 25 µM | GI50 (BT-549 breast): 6.24 µM | TGI (BT-549 breast): > 25 µM | GI50 (CAKI-1 renal): 11 µM | TGI (CAKI-1 renal): > 25 µM | GI50 (CCRF-CEM leukemia): 9.19 µM | TGI (CCRF-CEM leukemia): > 25 µM | GI50 (COLO 205 colon): 14.7 µM | TGI (COLO 205 colon): > 25 µM | GI50 (DU-145 prostate): 6.3 µM | TGI (DU-145 prostate): > 25 µM | GI50 (HCC-2998 colon): > 25 µM | TGI (HCC-2998 colon): > 25 µM | GI50 (HCT-116 colon): 6.15 µM | TGI (HCT-116 colon): > 25 µM | GI50 (HCT-15 colon): 4.85 µM | TGI (HCT-15 colon): > 25 µM | GI50 (HL-60(TB) leukemia): 5.35 µM | TGI (HL-60(TB) leukemia): > 25 µM | GI50 (HOP-62 NSCLC): 7.03 µM | TGI (HOP-62 NSCLC): > 19.9 µM | GI50 (HOP-92 NSCLC): 4.25 µM | TGI (HOP-92 NSCLC): 20.2 µM | GI50 (HS 578T breast): 8.78 µM | TGI (HS 578T breast): > 21.1 µM | GI50 (HT29 colon): 24.9 µM | TGI (HT29 colon): > 25 µM | GI50 (IGROV1 ovarian): 13.1 µM | TGI (IGROV1 ovarian): > 25 µM | GI50 (K-562 leukemia): 8.91 µM | TGI (K-562 leukemia): > 25 µM | GI50 (KM12 colon): 16 µM | TGI (KM12 colon): > 25 µM | GI50 (LOX IMVI melanoma): 13.7 µM | TGI (LOX IMVI melanoma): > 25 µM | GI50 (M14 melanoma): > 23.3 µM | TGI (M14 melanoma): > 25 µM | GI50 (MALME-3M melanoma): 10.6 µM | TGI (MALME-3M melanoma): > 25 µM | GI50 (MCF7 breast): 16.1 µM | TGI (MCF7 breast): > 25 µM | GI50 (MDA-MB-231 breast): 16.3 µM | TGI (MDA-MB-231 breast): > 25 µM | GI50 (MDA-MB-435): 9.24 µM | TGI (MDA-MB-435): > 25 µM | GI50 (MOLT-4 leukemia): 12.9 µM | TGI (MOLT-4 leukemia): > 25 µM | GI50 (NCI-H226 lung): 6.61 µM | TGI (NCI-H226 lung): > 25 µM | GI50 (NCI-H23 lung): 11.6 µM | TGI (NCI-H23 lung): > 25 µM | GI50 (NCI-H460 lung): 8.31 µM | TGI (NCI-H460 lung): > 25 µM | GI50 (NCI-H522 lung): 3.99 µM | TGI (NCI-H522 lung): 8.77 µM | GI50 (NCI/ADR-RES ovarian): 12 µM | TGI (NCI/ADR-RES ovarian): > 25 µM | GI50 (OVCAR-3 ovarian): 8.22 µM | TGI (OVCAR-3 ovarian): > 25 µM | GI50 (OVCAR-4 ovarian): 6.53 µM | TGI (OVCAR-4 ovarian): > 24 µM | GI50 (OVCAR-5 ovarian): > 19.5 µM | TGI (OVCAR-5 ovarian): > 25 µM | GI50 (OVCAR-8 ovarian): 10.6 µM | TGI (OVCAR-8 ovarian): > 25 µM | GI50 (PC-3 prostate): 13.4 µM | TGI (PC-3 prostate): > 25 µM | GI50 (RPMI-8226 leukemia): 9.29 µM | TGI (RPMI-8226 leukemia): > 25 µM | GI50 (RXF 393 renal): 6.05 µM | TGI (RXF 393 renal): > 24.2 µM | GI50 (SF-268 CNS): 6.71 µM | TGI (SF-268 CNS): > 25 µM | GI50 (SF-295 CNS): > 12.1 µM | TGI (SF-295 CNS): > 25 µM | GI50 (SF-539 CNS): 3.59 µM | TGI (SF-539 CNS): 10.7 µM | GI50 (SK-MEL-2 melanoma): 9.12 µM | TGI (SK-MEL-2 melanoma): 24.5 µM | GI50 (SK-MEL-28 melanoma): > 22.9 µM | TGI (SK-MEL-28 melanoma): > 25 µM | GI50 (SK-MEL-5 melanoma): 13.9 µM | TGI (SK-MEL-5 melanoma): > 25 µM | GI50 (SK-OV-3 ovarian): 7.53 µM | TGI (SK-OV-3 ovarian): > 25 µM | GI50 (SN12C renal): 14.1 µM | TGI (SN12C renal): > 25 µM | GI50 (SNB-19 CNS): 11.3 µM | TGI (SNB-19 CNS): > 25 µM | GI50 (SNB-75 CNS): 1.14 µM | TGI (SNB-75 CNS): > 25 µM | GI50 (SW-620 colon): 10.6 µM | TGI (SW-620 colon): > 25 µM | GI50 (T-47D breast): 9.64 µM | TGI (T-47D breast): > 25 µM | GI50 (TK-10 renal): 3.14 µM | TGI (TK-10 renal): > 22.9 µM | GI50 (U251 CNS): 8.17 µM | TGI (U251 CNS): > 25 µM | GI50 (UACC-257 melanoma): > 13.7 µM | TGI (UACC-257 melanoma): > 25 µM | GI50 (UACC-62 melanoma): 15.9 µM | TGI (UACC-62 melanoma): > 25 µM | GI50 (UO-31 renal): 4.72 µM | TGI (UO-31 renal): 21.1 µM
